System: 883617-216-R-J1-PDC tumor spheroids, viability
Assay: Anticancer human tumor 883617-216-R-J1-PDC patient-derived bladder carcinoma cell line growth inhibition [PI3K]
Details: spheroids with HUVEC and MSC; for IC50: curve of first compound; for viability, T/C: stronger effect = lower value
In short: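 Complex 3D spheroids (cancer cells + endothelial HUVEC + mesenchymal stem cells); drug pairs of targeted agent x inavolisib/alpelisib/duvelisib/copanlisib; half-log series from ~Cmax, max 10 microM if Cmax unknown; endpoint viability.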

[1] = second compound 0.0316 µM, first compound 0.0316 µM
[2] = second compound 0.0316 µM, first compound 0.1 µM
[3] = second compound 0.0316 µM, first compound 0.316 µM
[4] = second compound 0.0316 µM, first compound 1 µM
[5] = second compound 0.0316 µM, first compound 3.16 µM
[6] = second compound 0.0316 µM, first compound 10 µM
[7] = second compound 0.1 µM, first compound 0.0316 µM
[8] = second compound 0.1 µM, first compound 0.1 µM
[9] = second compound 0.1 µM, first compound 0.316 µM
[10] = second compound 0.1 µM, first compound 1 µM
[11] = second compound 0.1 µM, first compound 3.16 µM
[12] = second compound 0.1 µM, first compound 10 µM
[13] = second compound 0.316 µM, first compound 0.0316 µM
[14] = second compound 0.316 µM, first compound 0.1 µM
[15] = second compound 0.316 µM, first compound 0.316 µM
[16] = second compound 0.316 µM, first compound 1 µM
[17] = second compound 0.316 µM, first compound 3.16 µM
[18] = second compound 0.316 µM, first compound 10 µM
[19] = second compound 1 µM, first compound 0.0316 µM
[20] = second compound 1 µM, first compound 0.1 µM
[21] = second compound 1 µM, first compound 0.316 µM
[22] = second compound 1 µM, first compound 1 µM
[23] = second compound 1 µM, first compound 3.16 µM
[24] = second compound 1 µM, first compound 10 µM
[25] = second compound 3.16 µM, first compound 0.0316 µM
[26] = second compound 3.16 µM, first compound 0.1 µM
[27] = second compound 3.16 µM, first compound 0.316 µM
[28] = second compound 3.16 µM, first compound 1 µM
[29] = second compound 3.16 µM, first compound 3.16 µM
[30] = second compound 3.16 µM, first compound 10 µM
[31] = second compound 10 µM, first compound 0.0316 µM
[32] = second compound 10 µM, first compound 0.1 µM
[33] = second compound 10 µM, first compound 0.316 µM
[34] = second compound 10 µM, first compound 1 µM
[35] = second compound 10 µM, first compound 3.16 µM
[36] = second compound 10 µM, first compound 10 µM
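Further: spheroids exposed to agents for 7 days before the viability read.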

Structure (SMILES): CC(C)NCC(C(=O)N1CCN(c2ncnc3c2C(C)CC3O)CC1)c1ccc(Cl)cc1 (stereo unspecified) + CC(Nc1ncnc2nc[nH]c12)c1cc2cccc(Cl)c2c(=O)n1-c1ccccc1
- IC50 (second compound 0.0316 µM): 520 nM
- IC50 (second compound 0.1 µM): 556 nM
- IC50 (second compound 0.316 µM): 492 nM
- IC50 (second compound 1 µM): 513 nM
- IC50 (second compound 3.16 µM): 345 nM
- IC50 (second compound 10 µM): < 31.6 nM
- viability, T/C [1]: 87.6%
- viability, T/C [2]: 84.8%
- viability, T/C [3]: 55%
- viability, T/C [4]: 39.7%
- viability, T/C [5]: 17.8%
- viability, T/C [6]: 9.17%
- viability, T/C [7]: 78.2%
- viability, T/C [8]: 76%
- viability, T/C [9]: 59.9%
- viability, T/C [10]: 38.7%
- viability, T/C [11]: 18.9%
- viability, T/C [12]: 8.02%
- viability, T/C [13]: 97.8%
- viability, T/C [14]: 78.8%
- viability, T/C [15]: 60.9%
- viability, T/C [16]: 35.4%
- viability, T/C [17]: 17.8%
- viability, T/C [18]: 8.48%
- viability, T/C [19]: 69.1%
- viability, T/C [20]: 81.1%
- viability, T/C [21]: 52.4%
- viability, T/C [22]: 40%
- viability, T/C [23]: 17.1%
- viability, T/C [24]: 6.81%
- viability, T/C [25]: 64%
- viability, T/C [26]: 53.8%
- viability, T/C [27]: 55.2%
- viability, T/C [28]: 28.8%
- viability, T/C [29]: 16.5%
- viability, T/C [30]: 7.2%
- viability, T/C [31]: 49.6%
- viability, T/C [32]: 42.7%
- viability, T/C [33]: 38.7%
- viability, T/C [34]: 25.4%
- viability, T/C [35]: 13.1%
- viability, T/C [36]: 6.37%

Structure (SMILES): CCN1CCN(Cc2ccc(Nc3ncc(F)c(-c4cc(F)c5nc(C)n(C(C)C)c5c4)n3)nc2)CC1 + CC(Nc1ncnc2nc[nH]c12)c1cc2cccc(Cl)c2c(=O)n1-c1ccccc1
- IC50 (second compound 0.0316 µM): > 1000 nM
- IC50 (second compound 0.1 µM): > 1000 nM
- IC50 (second compound 0.316 µM): 582 nM
- IC50 (second compound 1 µM): 282 nM
- IC50 (second compound 3.16 µM): 31.9 nM
- IC50 (second compound 10 µM): 3.37 nM
- viability, T/C (second compound 0.0316 µM, first compound 0.00316 µM): 91.4%
- viability, T/C (second compound 0.0316 µM, first compound 0.01 µM): 79.4%
- viability, T/C [1]: 79.2%
- viability, T/C [2]: 65.7%
- viability, T/C [3]: 56.3%
- viability, T/C [4]: 51.3%
- viability, T/C (second compound 0.1 µM, first compound 0.00316 µM): 89.3%
- viability, T/C (second compound 0.1 µM, first compound 0.01 µM): 88.8%
- viability, T/C [7]: 71.6%
- viability, T/C [8]: 60.2%
- viability, T/C [9]: 64.1%
- viability, T/C [10]: 50.7%
- viability, T/C (second compound 0.316 µM, first compound 0.00316 µM): 87.5%
- viability, T/C (second compound 0.316 µM, first compound 0.01 µM): 78.4%
- viability, T/C [13]: 60.8%
- viability, T/C [14]: 67.8%
- viability, T/C [15]: 46%
- viability, T/C [16]: 49.6%
- viability, T/C (second compound 1 µM, first compound 0.00316 µM): 69.6%
- viability, T/C (second compound 1 µM, first compound 0.01 µM): 69.4%
- viability, T/C [19]: 59.3%
- viability, T/C [20]: 52.2%
- viability, T/C [21]: 54.8%
- viability, T/C [22]: 40.2%
- viability, T/C (second compound 3.16 µM, first compound 0.00316 µM): 72.5%
- viability, T/C (second compound 3.16 µM, first compound 0.01 µM): 61.9%
- viability, T/C [25]: 50.3%
- viability, T/C [26]: 40.7%
- viability, T/C [27]: 40.1%
- viability, T/C [28]: 35.2%
- viability, T/C (second compound 10 µM, first compound 0.00316 µM): 51.3%
- viability, T/C (second compound 10 µM, first compound 0.01 µM): 34.8%
- viability, T/C [31]: 34%
- viability, T/C [32]: 30.8%
- viability, T/C [33]: 28.1%
- viability, T/C [34]: 27%

Structure (SMILES): Cn1ncc(Cl)c1-c1cc(C(=O)NC(CN)Cc2cccc(F)c2)sc1Cl (stereo unspecified) + CC(Nc1ncnc2nc[nH]c12)c1cc2cccc(Cl)c2c(=O)n1-c1ccccc1
- IC50 (second compound 0.0316 µM): 518 nM
- IC50 (second compound 0.1 µM): 443 nM
- IC50 (second compound 0.316 µM): 539 nM
- IC50 (second compound 1 µM): 394 nM
- IC50 (second compound 3.16 µM): 257 nM
- IC50 (second compound 10 µM): < 31.6 nM
- viability, T/C [1]: 90.3%
- viability, T/C [2]: 88.7%
- viability, T/C [3]: 58.2%
- viability, T/C [4]: 36%
- viability, T/C [5]: 13.7%
- viability, T/C [6]: 6.6%
- viability, T/C [7]: 74.9%
- viability, T/C [8]: 83.1%
- viability, T/C [9]: 55.2%
- viability, T/C [10]: 30.2%
- viability, T/C [11]: 12.4%
- viability, T/C [12]: 6.85%
- viability, T/C [13]: 89%
- viability, T/C [14]: 89%
- viability, T/C [15]: 63.1%
- viability, T/C [16]: 33.9%
- viability, T/C [17]: 10.6%
- viability, T/C [18]: 7.26%
- viability, T/C [19]: 84.4%
- viability, T/C [20]: 67.1%
- viability, T/C [21]: 57.9%
- viability, T/C [22]: 31.8%
- viability, T/C [23]: 11.7%
- viability, T/C [24]: 6.93%
- viability, T/C [25]: 86.4%
- viability, T/C [26]: 70.1%
- viability, T/C [27]: 44.6%
- viability, T/C [28]: 25.6%
- viability, T/C [29]: 13.2%
- viability, T/C [30]: 5.57%
- viability, T/C [31]: 50.3%
- viability, T/C [32]: 40.3%
- viability, T/C [33]: 37.1%
- viability, T/C [34]: 23%
- viability, T/C [35]: 10.5%
- viability, T/C [36]: 5.07%
